{"source": "patent US20250051375A1", "about": "“ANTI-HIV COMPOUNDS” (Gilead Sciences, Inc., priority 2023, published 2025)", "key": {"PBS Stability Assay": {"assay": "PBS Stability Assay", "format": "physicochemical", "conditions": "buffer, pH 7.4, 2 μM, phosphate buffered saline pH 7.4; read-out: PBS T½", "outline": "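Half-life derives from first-order exponential decline of % compound remaining, quantified by LC-MS analyte/internal-standard peak-area ratio. Compound (2 μM final) sat in pH 7.4 phosphate-buffered saline, with aliquots quenched into acidified acetonitrile containing labetalol from 0 to 120 min.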"}, "[1]": {"molecular_target": "bovine intestinal alkaline phosphatase (Bos taurus (Bovine), UniProt P19111)", "sequence (P19111 20-506)": "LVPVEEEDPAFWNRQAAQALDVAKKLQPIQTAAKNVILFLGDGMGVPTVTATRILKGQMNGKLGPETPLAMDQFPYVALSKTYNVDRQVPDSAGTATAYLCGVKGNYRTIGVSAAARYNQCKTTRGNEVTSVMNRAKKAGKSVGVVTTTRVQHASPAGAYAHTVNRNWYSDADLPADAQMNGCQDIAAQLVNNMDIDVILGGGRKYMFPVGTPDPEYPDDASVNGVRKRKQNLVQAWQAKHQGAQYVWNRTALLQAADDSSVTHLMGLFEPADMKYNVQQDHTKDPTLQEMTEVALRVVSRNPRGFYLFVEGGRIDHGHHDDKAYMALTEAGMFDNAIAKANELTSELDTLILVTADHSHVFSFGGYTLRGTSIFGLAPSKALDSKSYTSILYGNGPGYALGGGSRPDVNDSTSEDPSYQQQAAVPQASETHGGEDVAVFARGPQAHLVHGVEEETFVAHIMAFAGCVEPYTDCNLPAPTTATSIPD", "assay": "BiALP: conversion by bovine intestinal alkaline phosphatase", "format": "in vitro ADME", "conditions": "2 μM substrate, 100 ng/mL iALP, Tris pH 7.8, 37° C., 60 minutes", "outline": "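LC-MS (positive mode) quantified analyte/internal-standard peak area ratios, referenced to 2 μM parent product. This followed a 60 min, 37° C reaction of 2 μM substrate in Tris buffer pH 7.8 (1 mM MgCl2, 1 mM ZnCl2) containing 100 ng/mL iALP or buffer alone, run in triplicate.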"}, "Solubility in FaSSIF": {"assay": "Solubility in FaSSIF", "conditions": "23 °C, pH 6.5, fassif, thermodynamic from solid", "outline": "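Concentration measured by HPLC-UV after solid compound was dosed at 5 mg/mL into pH 6.5 fasted-state simulated intestinal fluid containing taurocholate and lecithin (4:1 molar) and vortexed.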"}, "HIV-1 IIIB strain": {"tested_on": "HIV-1 IIIB strain", "assay": "MT-4 HIV Wild Type Virus Infection Assay (IIIB Virus)", "format": "cell-based", "conditions": "Human immunodeficiency virus 1, IIIB, MT4, 120 h, MT-4 cells acutely infected with HIV-1 IIIB, 5 day incubation, Cell-titer glo", "outline": "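MT-4 cells at 2×10^6 cells/ml in RPMI/10% FBS were acutely infected with HIV-1 IIIB for 1 h at 37° C, diluted 25× and added to serially diluted compounds. After 5 days at 37° C, viability read by CellTiter-Glo luminescence; EC50 from dose-response curves.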"}}, "note": "pEC50: −log10 of the molar value.", "data": [{"smiles": "COC(=O)N[C@H](C(=O)N[C@@H](Cc1ccc(C#Cc2cnc(N3CC4CCC(C3)N4C3COC3)nc2)cc1)[C@H](CN(Cc1c(F)cc(-c2ccn(C(F)F)n2)cc1F)NC(=O)[C@@H](NC(=O)OC)C(C)(C)C(F)(F)F)OC(=O)CC(C)(C)c1c(CC(=O)NCCC(=O)O)cc(C)cc1OP(=O)(O)O)C(C)(C)C(F)(F)F", "note": "[Example 26]", "values": [{"measurement": "half-life at 2 μM", "setting": "PBS Stability Assay", "result": 2.44, "unit": "h"}, {"measurement": "[Compound]", "setting": "[1]", "result": 1764, "unit": "nM"}, {"measurement": "solubility at 2 h", "setting": "Solubility in FaSSIF", "result": 1440, "unit": "µg/mL"}, {"measurement": "pEC50", "setting": "HIV-1 IIIB strain", "result": 7.01}]}, {"smiles": "COC(=O)N[C@H](C(=O)N[C@@H](Cc1ccc(C#Cc2cnc(N3CC4CCC(C3)N4C3COC3)nc2)cc1)[C@H](CN(Cc1c(F)cc(-c2ccn(C(F)F)n2)cc1F)NC(=O)[C@@H](NC(=O)OC)C(C)(C)C(F)(F)F)OC(=O)CC(C)(C)c1c(CC(=O)N[C@H](CCC(=O)O)C(=O)O)cc(C)cc1OP(=O)(O)O)C(C)(C)C(F)(F)F", "note": "[Example 92]", "values": [{"measurement": "half-life at 2 μM", "setting": "PBS Stability Assay", "result": 5.95, "unit": "h"}, {"measurement": "[Compound]", "setting": "[1]", "result": 1771.4, "unit": "nM"}, {"measurement": "solubility at 2 h", "setting": "Solubility in FaSSIF", "result": 3660, "unit": "µg/mL"}, {"measurement": "pEC50", "setting": "HIV-1 IIIB strain", "result": 7.43}]}, {"smiles": "COC(=O)N[C@H](C(=O)N[C@@H](Cc1ccc(C#Cc2cnc(N3CC4CCC(C3)N4C3COC3)nc2)cc1)[C@H](CN(Cc1c(F)cc(-c2ccn(C(F)F)n2)cc1F)NC(=O)[C@@H](NC(=O)OC)C(C)(C)C(F)(F)F)OC(=O)CC(C)(C)c1c(CC(=O)NCCCS(=O)(=O)O)cc(C)cc1OP(=O)(O)O)C(C)(C)C(F)(F)F", "note": "[Example 25]", "values": [{"measurement": "half-life at 2 μM", "setting": "PBS Stability Assay", "result": 1.37, "unit": "h"}, {"measurement": "[Compound]", "setting": "[1]", "result": 2023.7, "unit": "nM"}, {"measurement": "solubility at 2 h", "setting": "Solubility in FaSSIF", "result": 2410, "unit": "µg/mL"}, {"measurement": "pEC50", "setting": "HIV-1 IIIB strain", "result": 7.20}]}, {"smiles": "COC(=O)N[C@H](C(=O)N[C@@H](Cc1ccc(C#Cc2cnc(N3CC4CCC(C3)N4C3COC3)nc2)cc1)[C@H](CN(Cc1c(F)cc(-c2ccn(C(F)F)n2)cc1F)NC(=O)[C@@H](NC(=O)OC)C(C)(C)C(F)(F)F)OC(=O)OCOC(=O)CC(C)(C)c1c(CC(=O)N[C@@H](CC(N)=O)C(=O)O)cc(C)cc1OP(=O)(O)O)C(C)(C)C(F)(F)F", "note": "[Example 72]", "values": [{"measurement": "half-life at 2 μM", "setting": "PBS Stability Assay", "result": 6.12, "unit": "h"}, {"measurement": "[Compound]", "setting": "[1]", "result": 827.8, "unit": "nM"}, {"measurement": "solubility at 2 h", "setting": "Solubility in FaSSIF", "result": 4980, "unit": "µg/mL"}, {"measurement": "pEC50", "setting": "HIV-1 IIIB strain", "result": 8.27}]}, {"smiles": "COC(=O)N[C@H](C(=O)N[C@@H](Cc1ccc(C#Cc2cnc(N3CC4CCC(C3)N4C3COC3)nc2)cc1)[C@H](CN(Cc1c(F)cc(-c2ccn(C(F)F)n2)cc1F)NC(=O)[C@@H](NC(=O)OC)C(C)(C)C(F)(F)F)OC(=O)CC(C)(C)c1c(CC(=O)N(C)CCCC(=O)O)cc(C)cc1OP(=O)(O)O)C(C)(C)C(F)(F)F", "note": "[Example 93]", "values": [{"measurement": "half-life at 2 μM", "setting": "PBS Stability Assay", "result": 2.77, "unit": "h"}, {"measurement": "[Compound]", "setting": "[1]", "result": 1917.5, "unit": "nM"}, {"measurement": "solubility at 2 h", "setting": "Solubility in FaSSIF", "result": "< 1000", "unit": "µg/mL"}, {"measurement": "pEC50", "setting": "HIV-1 IIIB strain", "result": 7.25}]}, {"smiles": "CC[C@H](C)[C@H](NC(=O)Cc1cc(C)cc(OP(=O)(O)O)c1C(C)(C)CC(=O)O[C@@H](CN(Cc1c(F)cc(-c2ccn(C(F)F)n2)cc1F)NC(=O)[C@@H](NC(=O)OC)C(C)(C)C(F)(F)F)[C@H](Cc1ccc(C#Cc2cnc(N3CC4CCC(C3)N4C3COC3)nc2)cc1)NC(=O)[C@@H](NC(=O)OC)C(C)(C)C(F)(F)F)C(=O)O", "note": "[Example 96]", "values": [{"measurement": "half-life at 2 μM", "setting": "PBS Stability Assay", "result": 4.33, "unit": "h"}, {"measurement": "[Compound]", "setting": "[1]", "result": 2114.6, "unit": "nM"}, {"measurement": "solubility at 2 h", "setting": "Solubility in FaSSIF", "result": 1840, "unit": "µg/mL"}, {"measurement": "pEC50", "setting": "HIV-1 IIIB strain", "result": 6.25}]}, {"smiles": "COC(=O)N[C@H](C(=O)N[C@@H](Cc1ccc(C#Cc2cnc(N3CC4CCC(C3)N4C3COC3)nc2)cc1)[C@H](CN(Cc1c(F)cc(-c2ccn(C(F)F)n2)cc1F)NC(=O)[C@@H](NC(=O)OC)C(C)(C)C(F)(F)F)OC(=O)OCOC(=O)CC(C)(C)c1c(CC(=O)NCP(=O)(O)O)cc(C)cc1OP(=O)(O)O)C(C)(C)C(F)(F)F", "note": "[Example 69]", "values": [{"measurement": "half-life at 2 μM", "setting": "PBS Stability Assay", "result": 13.1, "unit": "h"}, {"measurement": "[Compound]", "setting": "[1]", "result": 1578.5, "unit": "nM"}, {"measurement": "solubility at 2 h", "setting": "Solubility in FaSSIF", "result": 4950, "unit": "µg/mL"}, {"measurement": "pEC50", "setting": "HIV-1 IIIB strain", "result": 8.46}]}, {"smiles": "COC(=O)N[C@H](C(=O)N[C@@H](Cc1ccc(C#Cc2cnc(N3CC4CCC(C3)N4C3COC3)nc2)cc1)[C@H](CN(Cc1c(F)cc(-c2ccn(C(F)F)n2)cc1F)NC(=O)[C@@H](NC(=O)OC)C(C)(C)C(F)(F)F)OC(=O)CC(C)(C)c1c(CC(=O)N[C@@H](CC(C)C)C(=O)O)cc(C)cc1OP(=O)(O)O)C(C)(C)C(F)(F)F", "note": "[Example 99]", "values": [{"measurement": "half-life at 2 μM", "setting": "PBS Stability Assay", "result": 7.45, "unit": "h"}, {"measurement": "[Compound]", "setting": "[1]", "result": 1928.8, "unit": "nM"}, {"measurement": "solubility at 2 h", "setting": "Solubility in FaSSIF", "result": 1880, "unit": "µg/mL"}, {"measurement": "pEC50", "setting": "HIV-1 IIIB strain", "result": 6.43}]}]}
